In one assay the test system is Soybean. Nature of the assay: Test C pre-emergence on Fallsington silt loam soil. In kind it is in vivo, soybeans. As to conditions: 0.03 kg/ha, 28 days. The text has this: (§1) The high herbicidal activity of two of the compounds from within the scope of the invention is evident from the results obtained in this test. The experiment concerned pre-emergence applications on soil. The containers used were 25 cm diameter plastic pots filled with Fallsington silt loam. One set of pots was planted to weeds, the seeds of which were uniformly mixed with the top 1.2 cm layer of soil. The species selected were: johnsongrass (Sorghum halepense), barnyardgrass (Echinochloa crusgalli), crabgrass (Digitaria sanguinalis), giant foxtail (Setaria faberii), velvetleaf (Abutilon theophrasti), jimsonweed (Datura stramonium), mustard (Brassica arvensis), and pigweed (Amaranthus retroflexus). Another set of pots were planted to the following crops with from one to four species per pot: corn (planting depth 3.7 cm), cotton, soybeans, sunflower, Clinton oats, wheat, Black Valentine beans, rice, sorghum, peas, flax, and peanuts (all at 2.5 cm depth), cucumbers, cabbage, alfalfa, safflower, sugarbeets, tomato, spinach, barley, and Kentucky bluegrass (all at 1.2 cm depth). Immediately after planting, the test chemical was applied to the soil surfaces dissolved in a non-phytotoxic solvent. One pot from the weed phase and one of each of the crop species were left untreated for the purpose of comparison. […]

A further assay concerns Ky. bluegrass. Nature of the assay: Test C pre-emergence on Fallsington silt loam soil. It is filed as in vivo, Kentucky bluegrass. As to conditions: 0.03 kg/ha, 28 days.
Text: as §1

The next assay concerns Grasses. Nature of the assay: Test C pre-emergence on Fallsington silt loam soil. As to conditions: 28 days. It is filed as in vivo, johnsongrass, barnyardgrass, crabgrass, giant foxtail. An excerpt:
The high herbicidal activity of two of the compounds from within the scope of the invention is evident from the results obtained in this test. The experiment concerned pre-emergence applications on soil. The containers used were 25 cm diameter plastic pots filled with Fallsington silt loam. One set of pots was planted to weeds, the seeds of which were uniformly mixed with the top 1.2 cm layer of soil. The species selected were: johnsongrass (Sorghum halepense), barnyardgrass (Echinochloa crusgalli), crabgrass (Digitaria sanguinalis), giant foxtail (Setaria faberii), velvetleaf (Abutilon theophrasti), jimsonweed (Datura stramonium), mustard (Brassica arvensis), and pigweed (Amaranthus retroflexus). Another set of pots were planted to the following crops with from one to four species per pot: corn (planting depth 3.7 cm), cotton, soybeans, sunflower, Clinton oats, wheat, Black Valentine beans, rice, sorghum, peas, flax, and peanuts (all at 2.5 cm depth), cucumbers, cabbage, alfalfa, safflower, sugarbeets, tomato, spinach, barley, and Kentucky bluegrass (all at 1.2 cm depth). Immediately after planting, the test chemical was applied to the soil surfaces dissolved in a non-phytotoxic solvent. One pot from the weed phase and one of each of the crop species were left untreated for the purpose of comparison. The treated and untreated pots were promptly watered with approximatley 4 mm of simultated rainfall and then held in a greenhouse for several weeks. Visual weed and crop response ratings were made 28 days after treatment utilizing the rating system as described above for Test A. The data are given in Table C.

The next assay concerns Velvetleaf. The assay is described as follows: Test F over-the-top soil/foliage treatment. It is filed as in vivo, Abutilon theophrasti. The note with it: soil/foliage spray, ~14 days. On the procedure:
The test chemicals, dissolved in a non-phytotoxic solvent, were applied in an overall spray to the foliage and surrounding […] of selected plant species. […] Approximately fourteen days after treatment, all species were visually compared to untreated controls and rated for response to treatment.
All plant species were seeded in Woodstown sandy loam soil and grown in a greenhouse. The following species were grown in soil contained in plastic pots (25 cm diameter by 13 cm deep): soybeans, cotton, alfalfa, corn, rice, wheet, sorghum, velvetleaf (Abutilon theophrasti), sesbania (Sesbania exaltata), Cassia (Cassia tora), morningglory (Ipomoea hederacea), jimsonweed (Datura stramonium), cocklebur (Xanthium pensylvanicum), crabgrass (Digitaria spp.), nutsedge (Cyperus rotundus), barnyardgrass (Echinochloa crusgalli), giant foxtail (Setaria faberii) and wild oats (Avena fatua). The following species were grown in soil in a paper cup (12 cm diameter by 13 cm deep): sunflower, sugarbeets, and mustard. All plants were sprayed approximately 14 days after planting.

Another assay relates to Wild Oats. Nature of the assay: Test D pre-/post-emergence weed control in cereals. It is filed as in vivo, Avena fatua. The note with it: 20 days. An excerpt:
(§2) Two ten-inch in diameter plastic pans lined with polyethylene liners were filled with prepared Fallsington slit loam soil. One pan was planted with seeds of wheat (Triticum aestivum), barley (Hordeum vulgarel, wild oats (Avena fatua), downy brome (Bromus tectorum), cheatgrass (Bromus secalinus), blackgrass (Alopecurus myosuroides), annual bluegrass (Poa annual, green foxtail (Setaria viridis), quack grass (Agropyron repens), Italian ryegrass (Lolium multiflorum) and ripgut brome (Bromus rigidus). The other pan was planted with seeds of Russian thistle (Salsola kali), tansy mustard (Descuraina pinnata), smartweed (Polygonum pensylvanicum), tumble mustard (Sisymbrium altissium) kochia (Kochia scoparia), shepherd's purse (Capsella bursa-pastoris), Matricaria inodora, black nightshade (Solanum nigrum), yellow rocket (Barbarea vulgaris), wild mustard (Brassica kaber) and wild buckwheat (Polygonum convolvulus). The above two pans were treated pre-emergence. At the same time two pans in which the above plant species were growing were treated post-emergence. Plant height at the time of treatment ranged from 1-15 cm depending on plant species.
(§3) The compounds applied were diluted with a non-phytotoxic solvent and sprayed over-the-top of the pans. An untreated control and a solvent alone control were included for comparison. All treatments were maintained in the greenhouse for 20 days at which time the treatments were compared to the controls and the effects visually rated. The recorded data, presented in Table D, indicate that certain compounds from within the scope of the invention have utility for pre- and/or post-emergence weed control in cereal crops such as wheat and barley.

Another assay relates to Cheatgrass. Nature of the assay: Test D pre-/post-emergence weed control in cereals. As to conditions: 20 days. It is filed as in vivo, Bromus secalinus.
Text: as §2, §3

Another assay concerns Blackgrass. Nature of the assay: Test D pre-/post-emergence weed control in cereals. It is filed as in vivo, Alopecurus myosuroides. As to conditions: 0.015 kg/ha, 20 days.
Text: as §2, with “Plant height at the time of treatment ranged from 1-15 cm depending on plant species.” left out
(§4) The compounds applied were diluted with a non-phytotoxic solvent and sprayed over-the-top of the pans. […] The recorded data, presented in Table D, indicate that certain compounds from within the scope of the invention have utility for pre- and/or post-emergence weed control in cereal crops such as wheat and barley.

Another assay has as its system Annual Bluegrass. The assay is described as follows: Test D pre-/post-emergence weed control in cereals. In kind it is in vivo, Poa annual. The note with it: 20 days.
Text: as §2, §3

For a further assay, the system named is Quackgrass. Nature of the assay: Test D pre-/post-emergence weed control in cereals. It is filed as in vivo, Agropyron repens. The note with it: 20 days.
Text: as §2, §3

In the next assay the test system is Italian Ryegrass. Nature of the assay: Test D pre-/post-emergence weed control in cereals. It is filed as in vivo, Lolium multiflorum. As to conditions: 20 days.
Text: as §2, §3

A further assay relates to Tumble Mustard. The assay is described as follows: Test D pre-/post-emergence weed control in cereals. In kind it is in vivo, Sisymbrium altissium. As to conditions: 20 days.
Text: as §2, §3

Another assay relates to Black Nightshade. The assay is described as follows: Test D pre-/post-emergence weed control in cereals. As to conditions: 0.015 kg/ha, 20 days. It is filed as in vivo, Solanum nigrum.
Text: as §2, with “Plant height at the time of treatment ranged from 1-15 cm depending on plant species.” left out
as §4

For a further assay, the system named is Yellow Rocket. Nature of the assay: Test D pre-/post-emergence weed control in cereals. In kind it is in vivo, Barbarea vulgaris. As to conditions: 0.06 kg/ha, 20 days.
Text: as §2, with “Plant height at the time of treatment ranged from 1-15 cm depending on plant species.” left out
as §4

The test system of the next assay is Wild Mustard. The assay is described as follows: Test D pre-/post-emergence weed control in cereals. In kind it is in vivo, Brassica kaber. The note with it: 20 days.
Text: as §2, §3

A further assay has as its system Jimsonweed. The assay is described as follows: Test G broadleaf herbicidal properties, overall spray. The note with it: 0.015 kg/ha, 22 days after treatment. In kind it is in vivo. On the procedure: (§5) Approximately 12 soybean plants were grown in a 25 cm. diameter plastic pot. In another pot of equal size the following broadleaf plant species were grown: sugarbeets, velvetleaf, Sesbania, Cassia, mustard, morningglory, alfalfa, jimsonweed, and cocklebur. The plant foliage and surrounding soil were treated with the test chemical dissolved in a non-phytotoxic solvent as an overall spray at the rate of 0.015 kg/ha, when the plants were 17 days old. Visual ratings of herbicidal effects were made 22 days after treatment utilizing the rating system described for Test A.

A further assay relates to Mustard. The description is as above. As to conditions: 0.015 kg/ha, 22 days after treatment. It is filed as in vivo. On the procedure:
as §5

For another assay, the system named is Sugarbeets. Described as above. It is filed as in vivo. The note with it: 0.015 kg/ha, 22 days after treatment. On the procedure:
as §5

Turning to `COc1cc(OC)nc(NC(=O)NS(=O)(=O)c2ccccc2OS(C)(=O)=O)n1` [Compound 1, N-[(4,6-Dimethoxypyrimidin-2-yl)aminocarbonyl]-2-hydroxybenzenesulfonamide, methanesulfonate], the Soybean response rating with Soybean is 4G, 2lH. Also, the “Ky. bluegrass response rating” value in the assay with Ky. bluegrass came to 7G. The figures for the Grasses response rating in the assay with Grasses (0.0035 kg/ha), in the assay with Grasses (0.0075 kg/ha) and with Grasses (0.015 kg/ha) were 0, 0 and 2G, respectively.
For `Cc1cc(C)nc(NC(=O)NS(=O)(=O)c2ccccc2OS(C)(=O)=O)n1` [Compound 3, N-[(4,6-dimethylpyrimidin-2-yl)aminocarbonyl]-2-hydroxybenzenesulfonamide, methanesulfonate], the results for the Velvetleaf response rating in the assay with Velvetleaf (0.003 kg/ha) and in the assay on Velvetleaf (0.015 kg/ha) were 7G and 5G, respectively.
For `CCCS(=O)(=O)Oc1ccccc1S(=O)(=O)NC(=O)Nc1nc(OC)cc(OC)n1` [Compound 36, N-[(4,6-dimethoxypropimidin-2-yl)aminocarbonyl]-2-hydroxybenzenesulfonamide, 1-propanesulfonate], the “Wild Oats response rating” value in the assay on Wild Oats (Post-Emergence, 0.015 kg/ha) turned out to be 0; in the assay with Wild Oats (Post-Emergence, 0.06 kg/ha), 0; in the assay on Wild Oats (Pre-Emergence, 0.015 kg/ha), 0; with Wild Oats (Pre-Emergence, 0.06 kg/ha), 0. Besides, the Cheatgrass response rating is reported as 1G in the assay on Cheatgrass (Post-Emergence, 0.015 kg/ha); 7G with Cheatgrass (Pre-Emergence, 0.015 kg/ha); 10C in the assay on Cheatgrass (Pre-Emergence, 0.06 kg/ha). Besides, the Blackgrass response rating amounted to 2G with Blackgrass (Post-Emergence) and 6G with Blackgrass (Pre-Emergence). In addition, the “Annual Bluegrass response rating” value is 2G in the assay with Annual Bluegrass (Post-Emergence, 0.015 kg/ha); 3G with Annual Bluegrass (Post-Emergence, 0.06 kg/ha); 6G with Annual Bluegrass (Pre-Emergence, 0.015 kg/ha). For the same compound, the Quackgrass response rating in the assay on Quackgrass (Post-Emergence, 0.015 kg/ha) came to 0; in the assay on Quackgrass (Post-Emergence, 0.06 kg/ha), 0; with Quackgrass (Pre-Emergence, 0.015 kg/ha) it was 0; in the assay on Quackgrass (Pre-Emergence, 0.06 kg/ha) it was 2G. Besides, the “Italian Ryegrass response rating” value came to 0 with Italian Ryegrass (Post-Emergence, 0.015 kg/ha); 0 in the assay with Italian Ryegrass (Post-Emergence, 0.06 kg/ha); 1G in the assay on Italian Ryegrass (Pre-Emergence, 0.015 kg/ha); 3G in the assay on Italian Ryegrass (Pre-Emergence, 0.06 kg/ha). Further, the “Tumble Mustard response rating” value is 10C in the assay with Tumble Mustard (Post-Emergence, 0.015 kg/ha); 10C in the assay with Tumble Mustard (Post-Emergence, 0.06 kg/ha); 5G with Tumble Mustard (Pre-Emergence, 0.015 kg/ha). Moreover, the figures for the “Black Nightshade response rating” value in the assay on Black Nightshade (Post-Emergence) and in the assay with Black Nightshade (Pre-Emergence) were 2G and 4G, respectively. In addition, the “Yellow Rocket response rating” value in the assay with Yellow Rocket (Post-Emergence) and in the assay with Yellow Rocket (Pre-Emergence) was 10C in each case. Moreover, the “Wild Mustard response rating” value in the assay on Wild Mustard (Post-Emergence, 0.015 kg/ha) is listed as 10C; in the assay on Wild Mustard (Post-Emergence, 0.06 kg/ha), 10C; in the assay with Wild Mustard (Pre-Emergence, 0.06 kg/ha) it was 10C.
`CCCS(=O)(=O)Oc1ccccc1S(=O)(=O)NC(=O)Nc1nc(C)nc(OC)n1` [Compound 39, 2-hydroxy-N-[(4-methoxy-6-methyl-1,3,5-triazin-2-yl)aminocarbonyl]benzenesulfonamide, 1-propanesulfonate]: the Jimsonweed response rating in the assay on Jimsonweed is reported as 0. The Mustard response rating in the assay with Mustard is reported as 10C. Further, the Sugarbeets response rating with Sugarbeets worked out at 9G.

Source of the values: EP0044212B1, “Herbicidal o-alkylsulfonyloxy- and o-alkylsulfonylamino-benzenesulfonamides” (E.I. DU PONT DE NEMOURS AND COMPANY, priority 1980, dated 1982).
